Source: US8772492B2, “Substituted isoquinoline and isoquinolinone derivatives” (Sanofi, priority 2006, dated 2014)

Target: T1, Active human recombinant ROCK II (N-terminal His6-tagged recombinant human ROCK-II residues 11-552) (Homo sapiens, UniProt O75116)
T1 construct: recombinant human ROCK-II residues 11-552; His6 (N); purchased Upstate Ltd., Dundee, UK
Experiment: Determination of Rho-kinase activity (Rho-kinase inhibition, Caliper peptide phosphorylation assay)
Format: biochemical
Conditions: Fluorescein-AKRRRLSSLRA-COOH peptide substrate and ATP, 60 min incubation at 32° C., tested as the form (salt or free base) obtained in the examples, read-out: pIC50 (negative decadal logarithm of the IC50), Rho-kinase inhibition (converted)
Method: Determination of Rho-Kinase Activity
To measure Rho-kinase inhibition, IC50 values were determined according to the following protocol:
Active human recombinant ROCK II (N-terminal His6-tagged recombinant human ROCK-II residues 11-552) was purchased from Upstate Ltd., Dundee, UK. The peptide substrate, Fluorescein-AKRRRLSSLRA-COOH, was obtained from JPT Peptide Technologies, Berlin, Germany. Adenosine-5′-triphosphate (ATP), bovine serum albumine (BSA), dimethylsulphoxide (DMSO), 4-(2-Hydroxyethyl)piperazine-1-ethanesulfonic acid (Hepes), Brij-35 and dithiothreitol (DTT) were purchased from Sigma-Aldrich, Munich, Germany. Tris(hydroxymethyl)-aminomethane (Tris), magnesium chloride, NaOH, 1M HCl and EDTA were obtained from Merck Biosciences, Darmstadt, Germany. “Complete” protease inhibitor was from Roche Diagnostics, Mannheim, Germany.
Test compounds were diluted to the appropriate concentrations in buffer 1 (25 mM Tris-HCl, pH 7.4, 5 mM MgCl2, 2 mM DTT, 0.02% (w/v) BSA and 3% DMSO). The ROCK II enzyme was diluted to a concentration of 100 ng/ml in buffer 2 (25 mM Tris-HCl, pH 7.4, 5 mM MgCl2, 2 mM DTT and 0.02% (w/v) BSA). The peptide substrate and ATP were diluted to concentrations of 3 μM and 120 μM, respectively, in the buffer 2. Two μl of the compound solution were mixed with 2 μl of the diluted enzyme in a 384-well small volume microtiter plate (Greiner, Bio-One, Frickenhausen, Germany), and the kinase reaction was initiated by addition of 2 μl of the solution containing peptide substrate and ATP. After 60 min incubation at 32° C., the reaction was stopped by addition of 20 μl of a solution containing 100 mM Hepes-NaOH, pH 7.4, 0.015% (v/v) Brij-35, 45 mM EDTA and 0.227% chip coating reagent 1 (Caliper Lifescience Inc, Hopkinton, Mass.). Phosphorylation of the substrate peptide was then detected on a Caliper 3000 instrument essentially as described by Pommereau et al (J. Biomol. Screening 9(5), 409-416, 2004). Separation conditions were as follows: Pressure −1.3 psi, upstream voltage −1562 V, downstream voltage −500 V, sample sip time 200 ms. Positive controls (buffer 1 instead of compound) and negative controls (buffer 1 instead of compound and buffer 2 instead of ROCK II) were run in parallel on each plate.
The following products/compounds were tested in said assay by using the respective form (salt or free base) obtained as in the examples described above and the following activities were measured.

T1 sequence (O75116 11-552): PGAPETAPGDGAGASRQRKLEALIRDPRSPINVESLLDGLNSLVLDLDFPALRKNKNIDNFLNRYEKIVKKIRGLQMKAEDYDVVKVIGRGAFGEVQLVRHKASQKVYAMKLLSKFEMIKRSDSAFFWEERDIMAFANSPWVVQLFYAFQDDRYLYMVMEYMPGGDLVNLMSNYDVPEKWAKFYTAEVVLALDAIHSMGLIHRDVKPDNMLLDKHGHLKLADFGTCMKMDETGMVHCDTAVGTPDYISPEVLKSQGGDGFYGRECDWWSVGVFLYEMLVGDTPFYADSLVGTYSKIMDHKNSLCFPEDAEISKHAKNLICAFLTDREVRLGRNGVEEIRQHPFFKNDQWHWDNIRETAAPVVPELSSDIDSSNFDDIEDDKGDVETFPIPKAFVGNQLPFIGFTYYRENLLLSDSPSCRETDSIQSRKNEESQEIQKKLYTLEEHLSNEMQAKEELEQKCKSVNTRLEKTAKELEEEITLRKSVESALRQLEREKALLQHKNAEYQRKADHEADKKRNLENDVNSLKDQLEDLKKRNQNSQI

IC50 [nM] | Structure (SMILES)
1000 to 10000 | O=C(NCCc1ccccc1)[C@@H]1C[C@@H](Oc2ccc3cnccc3c2)CCN1 [Compound 21, (2S,4S)-4-(Isoquinolin-6-yloxy)-piperidine-2-carboxylic acid phenethyl-amide]
≤ 1000 | O=C(NCc1ccccc1Cl)[C@@H]1C[C@@H](Oc2ccc3cnccc3c2)CCN1 [Compound 22, (2S,4S)-4-(Isoquinolin-6-yloxy)-piperidine-2-carboxylic acid 2-chloro-benzylamide]
1000 to 10000 | O=C(NCCO)[C@@H]1C[C@@H](Oc2ccc3cnccc3c2)CN1 [Compound 27, (2S,4R)-4-(Isoquinolin-6-yloxy)-pyrrolidine-2-carboxylic acid (2-hydroxy-ethyl)-amide]
≤ 1000 | C#CCNC(=O)[C@@H]1C[C@@H](Oc2ccc3cnccc3c2)CN1 [Compound 31, (2S,4R)-4-(Isoquinolin-6-yloxy)-pyrrolidine-2-carboxylic acid prop-2-ynylamide]
≤ 1000 | O=C(NCCc1ccccc1)[C@@H]1C[C@H](Nc2ccc3cnccc3c2)CN1 [Compound 45, (2S,4S)-4-(Isoquinolin-6-ylamino)-pyrrolidine-2-carboxylic acid phenethyl-amide]
1000 to 10000 | COCCNC(=O)[C@H]1CNC[C@@H]1Nc1ccc2cnccc2c1 [Compound 49, (3S,4R)-4-(Isoquinolin-6-ylamino)-pyrrolidine-3-carboxylic acid (2-methoxy-ethyl)-amide]

Further lines, the compound ahead of its results:

Structure (SMILES) | IC50 [nM]
O=C(NCc1ccco1)[C@@H]1C[C@H](Nc2ccc3cnccc3c2)CN1 [Compound 41, (2S,4S)-4-(Isoquinolin-6-ylamino)-pyrrolidine-2-carboxylic acid (furan-2-ylmethyl)-amide] | 1000 to 10000
COc1cccc(CNC(=O)[C@H]2CNC[C@@H]2Nc2ccc3cnccc3c2)c1 [Compound 48, (3S,4R)-4-(Isoquinolin-6-ylamino)-pyrrolidine-3-carboxylic acid 3-methoxy-benzylamide] | ≤ 1000
Cc1ccccc1NC(=O)[C@H]1CNC[C@@H]1Nc1ccc2cnccc2c1 [Compound 50, (3S,4R)-4-(Isoquinolin-6-ylamino)-pyrrolidine-3-carboxylic acid o-tolylamide] | ≤ 1000
O=c1[nH]ccc2cc(OC3(c4ccccc4)CCN(Cc4ccccc4)CC3)c(Cl)cc12 [Compound 69, 6-(1-Benzyl-4-phenyl-piperidin-4-yloxy)-7-chloro-2H-isoquinolin-1-one] | 1000 to 10000
CN1[C@@H]2CC[C@H]1C[C@@H](Oc1cc3cc[nH]c(=O)c3cc1Cl)C2 [Compound 75, 7-Chloro-6-(8-methyl-8-aza-bicyclo[3.2.1]oct-3-yloxy)-2H-isoquinolin-1-one] | ≤ 1000
Cc1cc2c(=O)[nH]ccc2cc1O[C@H]1C[C@H]2CC[C@@H](C1)N2C [Compound 76, 7-Methyl-6-(8-methyl-8-aza-bicyclo[3.2.1]oct-3-yloxy)-2H-isoquinolin-1-one] | ≤ 1000
